# Assay results reported in PMC4823954, “From fighting depression to conquering tumors: a novel tricyclic thiazepine compound as a tubulin polymerization inhibitor” (Cell Death & Disease, 2016).
# Experiments:
# Assay in all cases: KINOMEscan
# Format in all cases: binding
# Conditions in all cases: read-out: % Ctrl
# [1] = target: T1, BIKE (Homo sapiens, UniProt Q9NSY1)
# T1 construct: purchased DiscoveRx KINOMEscan
# Procedure, shortened: (§1)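 Competition binding panel of 442 non-mutant kinases: test compound at 5 and 10 μM competed with an active-site-directed ligand for 1 h with shaking. Bound kinase was eluted with 0.5 μM ligand and quantified by qPCR; %Ctrl = (compound − positive control)/(DMSO − positive control) × 100, lower meaning tighter binding.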
# [2] = target: T2, IRAK1 (Homo sapiens, UniProt P51617)
# T2 construct: purchased DiscoveRx KINOMEscan
# Procedure, shortened: as §1
# [3] = target: T3, HPK1 (Homo sapiens, UniProt Q92918)
# T3 construct: purchased DiscoveRx KINOMEscan
# Procedure, shortened: as §1
# [4] = target: T4, EGFR(L858R,T790M) (Homo sapiens, UniProt P00533, L858R/T790M)
# T4 construct: purchased DiscoveRx KINOMEscan
# [5] = target: T5, ERK3 (Homo sapiens, UniProt Q16659)
# T5 construct: purchased DiscoveRx KINOMEscan
# Procedure, shortened: as §1
# [6] = target: T6, EPHA4 (Homo sapiens, UniProt P54764)
# T6 construct: purchased DiscoveRx KINOMEscan
# Procedure, shortened: as §1
# [7] = target: T7, PRP4 (Homo sapiens, UniProt Q13523)
# T7 construct: purchased DiscoveRx KINOMEscan
# Procedure, shortened: as §1
# [8] = target: T8, MYO3A (Homo sapiens, UniProt Q8NEV4)
# T8 construct: purchased DiscoveRx KINOMEscan
# Procedure, shortened: as §1
# [9] = target: T9, PIK3CA(E545K) (Homo sapiens, UniProt P42336, E545K)
# T9 construct: purchased DiscoveRx KINOMEscan
# [10] = target: T10, ERK4 (Homo sapiens, UniProt P31152)
# T10 construct: purchased DiscoveRx KINOMEscan
# Procedure, shortened: as §1
# [11] = target: T11, PIK3CA(H1047L) (Homo sapiens, UniProt P42336, H1047L)
# T11 construct: purchased DiscoveRx KINOMEscan
# [12] = target: T12, EPHA2 (Homo sapiens, UniProt P29317)
# T12 construct: purchased DiscoveRx KINOMEscan
# Procedure, shortened: as §1
# [13] = target: T13, ABL1(M351T)-phosphorylated (Homo sapiens, UniProt P00519, M351T)
# T13 construct: purchased DiscoveRx KINOMEscan
# [14] = target: T14, CAMK2A (Homo sapiens, UniProt Q9UQM7)
# T14 construct: purchased DiscoveRx KINOMEscan
# Procedure, shortened: as §1
# [15] = target: T15, NEK3 (Homo sapiens, UniProt P51956)
# T15 construct: purchased DiscoveRx KINOMEscan
# Procedure, shortened: as §1
# [16] = target: T16, LCK (Homo sapiens, UniProt P06239)
# T16 construct: purchased DiscoveRx KINOMEscan
# Procedure, shortened: as §1
# [17] = target: T17, DCAMKL1 (Homo sapiens, UniProt O15075)
# T17 construct: purchased DiscoveRx KINOMEscan
# Procedure, shortened: as §1
# [18] = target: T18, PIK3CA (Homo sapiens, UniProt P42336)
# T18 construct: purchased DiscoveRx KINOMEscan
# Procedure, shortened: as §1
# [19] = target: T19, NEK4 (Homo sapiens, UniProt P51957)
# T19 construct: purchased DiscoveRx KINOMEscan
# Procedure, shortened: as §1
# [20] = target: T20, SNARK (Homo sapiens, UniProt Q9H093)
# T20 construct: purchased DiscoveRx KINOMEscan
# Procedure, shortened: as §1
# [21] = target: T21, ROCK2 (Homo sapiens, UniProt O75116)
# T21 construct: purchased DiscoveRx KINOMEscan
# Procedure, shortened: as §1
# [22] = target: T22, YES (Homo sapiens, UniProt P07947)
# T22 construct: purchased DiscoveRx KINOMEscan
# Procedure, shortened: as §1
# [23] = target: T23, MARK1 (Homo sapiens, UniProt Q9P0L2)
# T23 construct: purchased DiscoveRx KINOMEscan
# Procedure, shortened: as §1
# [24] = target: T24, MEK4 (Homo sapiens, UniProt P45985)
# T24 construct: purchased DiscoveRx KINOMEscan
# Procedure, shortened: as §1
# [25] = target: T25, MEK3 (Homo sapiens, UniProt P46734)
# T25 construct: purchased DiscoveRx KINOMEscan
# Procedure, shortened: as §1
# [26] = target: T26, ABL1-phosphorylated (Homo sapiens, UniProt P00519)
# T26 construct: purchased DiscoveRx KINOMEscan
# Procedure, shortened: as §1
# [27] = target: T27, MKK7 (Homo sapiens, UniProt O14733)
# T27 construct: purchased DiscoveRx KINOMEscan
# Procedure, shortened: as §1
# [28] = target: T28, LOK (Homo sapiens, UniProt O94804)
# T28 construct: purchased DiscoveRx KINOMEscan
# Procedure, shortened: as §1
# [29] = target: T29, MKNK1 (Homo sapiens, UniProt Q9BUB5)
# T29 construct: purchased DiscoveRx KINOMEscan
# Procedure, shortened: as §1
# [30] = target: T30, TLK1 (Homo sapiens, UniProt Q9UKI8)
# T30 construct: purchased DiscoveRx KINOMEscan
# Procedure, shortened: as §1
# T27 sequence (O14733 whole entry): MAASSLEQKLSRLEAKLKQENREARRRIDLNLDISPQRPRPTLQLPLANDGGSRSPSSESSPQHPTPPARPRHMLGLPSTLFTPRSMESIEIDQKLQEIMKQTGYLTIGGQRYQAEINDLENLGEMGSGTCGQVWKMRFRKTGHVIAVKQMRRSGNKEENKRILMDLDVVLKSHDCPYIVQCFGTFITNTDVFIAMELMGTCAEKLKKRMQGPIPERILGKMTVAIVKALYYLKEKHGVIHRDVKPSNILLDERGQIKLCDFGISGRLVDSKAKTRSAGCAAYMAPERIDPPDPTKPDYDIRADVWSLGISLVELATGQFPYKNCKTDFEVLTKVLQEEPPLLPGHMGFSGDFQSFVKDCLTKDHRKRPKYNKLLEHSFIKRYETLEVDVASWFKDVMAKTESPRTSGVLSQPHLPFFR
# T7 sequence (Q13523 whole entry): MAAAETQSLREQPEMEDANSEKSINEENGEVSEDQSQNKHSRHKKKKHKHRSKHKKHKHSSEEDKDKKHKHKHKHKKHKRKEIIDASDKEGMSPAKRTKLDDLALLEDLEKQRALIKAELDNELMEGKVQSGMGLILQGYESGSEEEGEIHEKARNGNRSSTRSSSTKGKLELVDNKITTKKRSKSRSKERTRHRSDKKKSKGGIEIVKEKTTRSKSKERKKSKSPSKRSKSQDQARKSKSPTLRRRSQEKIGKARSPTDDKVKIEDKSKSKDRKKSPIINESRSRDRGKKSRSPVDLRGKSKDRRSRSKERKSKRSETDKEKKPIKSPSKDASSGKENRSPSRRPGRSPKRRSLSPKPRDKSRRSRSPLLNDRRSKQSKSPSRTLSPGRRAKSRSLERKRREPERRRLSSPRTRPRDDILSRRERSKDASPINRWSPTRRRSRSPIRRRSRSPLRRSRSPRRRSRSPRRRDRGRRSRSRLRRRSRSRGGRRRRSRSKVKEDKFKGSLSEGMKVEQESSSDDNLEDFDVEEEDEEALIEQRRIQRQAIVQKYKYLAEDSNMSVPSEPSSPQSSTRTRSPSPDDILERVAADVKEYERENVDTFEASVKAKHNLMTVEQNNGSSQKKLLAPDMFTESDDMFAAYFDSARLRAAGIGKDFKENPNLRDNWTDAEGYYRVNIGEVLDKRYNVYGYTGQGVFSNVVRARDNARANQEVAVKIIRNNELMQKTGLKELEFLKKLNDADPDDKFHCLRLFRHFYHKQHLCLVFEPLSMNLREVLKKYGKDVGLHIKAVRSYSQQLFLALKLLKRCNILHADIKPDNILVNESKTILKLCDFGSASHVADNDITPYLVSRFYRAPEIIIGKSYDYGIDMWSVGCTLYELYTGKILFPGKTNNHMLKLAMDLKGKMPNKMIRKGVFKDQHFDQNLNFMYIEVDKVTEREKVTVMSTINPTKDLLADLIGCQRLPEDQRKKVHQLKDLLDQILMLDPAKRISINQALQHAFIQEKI
# T5 sequence (Q16659 whole entry): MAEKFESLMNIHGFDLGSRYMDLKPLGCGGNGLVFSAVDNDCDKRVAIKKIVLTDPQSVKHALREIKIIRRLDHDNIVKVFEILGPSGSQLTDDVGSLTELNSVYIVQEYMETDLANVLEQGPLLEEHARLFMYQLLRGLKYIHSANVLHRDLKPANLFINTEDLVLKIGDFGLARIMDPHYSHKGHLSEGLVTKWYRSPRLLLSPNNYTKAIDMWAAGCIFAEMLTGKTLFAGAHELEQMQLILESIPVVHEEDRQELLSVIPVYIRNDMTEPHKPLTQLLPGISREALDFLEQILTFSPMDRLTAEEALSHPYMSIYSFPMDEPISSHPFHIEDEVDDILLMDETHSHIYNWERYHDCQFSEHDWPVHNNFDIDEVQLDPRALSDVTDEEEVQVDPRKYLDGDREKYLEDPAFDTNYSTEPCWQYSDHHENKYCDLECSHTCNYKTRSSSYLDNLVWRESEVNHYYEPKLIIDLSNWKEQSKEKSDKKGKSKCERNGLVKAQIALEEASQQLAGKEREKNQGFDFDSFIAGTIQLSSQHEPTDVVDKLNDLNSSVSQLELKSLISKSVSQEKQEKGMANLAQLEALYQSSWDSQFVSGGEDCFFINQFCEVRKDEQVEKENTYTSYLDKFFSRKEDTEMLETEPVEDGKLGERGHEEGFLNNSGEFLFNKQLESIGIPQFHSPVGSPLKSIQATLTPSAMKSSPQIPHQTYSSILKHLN
# T30 sequence (Q9UKI8 whole entry): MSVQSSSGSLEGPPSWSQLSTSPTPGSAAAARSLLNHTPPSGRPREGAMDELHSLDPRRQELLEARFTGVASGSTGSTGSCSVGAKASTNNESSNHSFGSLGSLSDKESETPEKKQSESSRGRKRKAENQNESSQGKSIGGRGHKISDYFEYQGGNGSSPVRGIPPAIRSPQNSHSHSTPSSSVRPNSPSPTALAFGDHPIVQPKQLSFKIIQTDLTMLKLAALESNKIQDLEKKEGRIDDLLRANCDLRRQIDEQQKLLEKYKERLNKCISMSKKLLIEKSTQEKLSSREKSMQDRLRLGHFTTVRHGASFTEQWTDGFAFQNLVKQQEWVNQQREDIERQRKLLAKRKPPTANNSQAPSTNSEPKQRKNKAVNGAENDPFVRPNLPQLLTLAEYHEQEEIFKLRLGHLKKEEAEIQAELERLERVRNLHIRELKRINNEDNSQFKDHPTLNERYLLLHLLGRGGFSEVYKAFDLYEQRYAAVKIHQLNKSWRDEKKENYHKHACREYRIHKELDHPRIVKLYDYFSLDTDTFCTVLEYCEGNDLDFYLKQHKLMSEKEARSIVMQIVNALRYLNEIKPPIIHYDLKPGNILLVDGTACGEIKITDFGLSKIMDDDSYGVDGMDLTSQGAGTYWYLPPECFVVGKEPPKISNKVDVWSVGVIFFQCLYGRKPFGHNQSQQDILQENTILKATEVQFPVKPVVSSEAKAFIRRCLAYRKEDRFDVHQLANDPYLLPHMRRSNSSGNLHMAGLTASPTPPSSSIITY
# T6 sequence (P54764 20-986): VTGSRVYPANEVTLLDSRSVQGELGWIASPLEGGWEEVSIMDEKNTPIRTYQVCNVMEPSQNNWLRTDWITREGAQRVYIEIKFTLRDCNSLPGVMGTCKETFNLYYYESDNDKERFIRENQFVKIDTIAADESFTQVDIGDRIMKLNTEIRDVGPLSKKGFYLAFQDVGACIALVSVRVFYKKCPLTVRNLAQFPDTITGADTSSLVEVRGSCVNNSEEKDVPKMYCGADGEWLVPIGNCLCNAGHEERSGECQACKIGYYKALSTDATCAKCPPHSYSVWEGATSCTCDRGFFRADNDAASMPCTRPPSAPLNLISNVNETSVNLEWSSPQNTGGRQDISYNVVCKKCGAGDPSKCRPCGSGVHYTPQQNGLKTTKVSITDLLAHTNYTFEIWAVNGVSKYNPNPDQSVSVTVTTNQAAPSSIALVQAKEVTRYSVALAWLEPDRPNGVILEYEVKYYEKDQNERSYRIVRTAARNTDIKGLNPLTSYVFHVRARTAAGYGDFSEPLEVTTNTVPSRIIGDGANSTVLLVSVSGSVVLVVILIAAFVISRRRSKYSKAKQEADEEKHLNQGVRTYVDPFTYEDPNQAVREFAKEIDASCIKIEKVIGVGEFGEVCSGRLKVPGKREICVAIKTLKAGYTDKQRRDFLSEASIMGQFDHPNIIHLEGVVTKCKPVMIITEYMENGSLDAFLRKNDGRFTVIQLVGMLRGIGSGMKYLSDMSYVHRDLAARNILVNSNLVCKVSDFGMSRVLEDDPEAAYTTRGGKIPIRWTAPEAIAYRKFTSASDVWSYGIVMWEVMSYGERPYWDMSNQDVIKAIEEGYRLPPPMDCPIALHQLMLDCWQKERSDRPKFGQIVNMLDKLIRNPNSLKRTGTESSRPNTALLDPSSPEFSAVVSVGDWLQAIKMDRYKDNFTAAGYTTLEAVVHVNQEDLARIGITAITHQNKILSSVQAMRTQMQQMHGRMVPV
# T2 sequence (P51617 whole entry): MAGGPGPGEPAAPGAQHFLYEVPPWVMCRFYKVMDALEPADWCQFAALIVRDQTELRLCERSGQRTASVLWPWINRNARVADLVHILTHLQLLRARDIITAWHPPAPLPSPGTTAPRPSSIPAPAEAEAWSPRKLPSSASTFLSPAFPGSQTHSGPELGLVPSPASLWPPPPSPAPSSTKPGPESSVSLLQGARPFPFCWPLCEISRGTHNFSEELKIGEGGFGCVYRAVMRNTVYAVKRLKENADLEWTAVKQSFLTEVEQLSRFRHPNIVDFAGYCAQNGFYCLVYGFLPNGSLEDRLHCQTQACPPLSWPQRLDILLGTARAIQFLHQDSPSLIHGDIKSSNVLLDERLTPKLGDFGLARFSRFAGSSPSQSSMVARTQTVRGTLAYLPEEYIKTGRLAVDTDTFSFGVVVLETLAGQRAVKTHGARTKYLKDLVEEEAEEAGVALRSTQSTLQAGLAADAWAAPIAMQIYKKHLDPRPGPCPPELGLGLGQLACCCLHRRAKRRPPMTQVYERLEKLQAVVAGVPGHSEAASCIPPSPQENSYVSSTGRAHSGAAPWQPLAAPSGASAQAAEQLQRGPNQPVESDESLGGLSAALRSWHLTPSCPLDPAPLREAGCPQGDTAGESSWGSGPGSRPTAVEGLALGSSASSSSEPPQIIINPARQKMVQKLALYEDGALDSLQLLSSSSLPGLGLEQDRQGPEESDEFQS
# T25 sequence (P46734 whole entry): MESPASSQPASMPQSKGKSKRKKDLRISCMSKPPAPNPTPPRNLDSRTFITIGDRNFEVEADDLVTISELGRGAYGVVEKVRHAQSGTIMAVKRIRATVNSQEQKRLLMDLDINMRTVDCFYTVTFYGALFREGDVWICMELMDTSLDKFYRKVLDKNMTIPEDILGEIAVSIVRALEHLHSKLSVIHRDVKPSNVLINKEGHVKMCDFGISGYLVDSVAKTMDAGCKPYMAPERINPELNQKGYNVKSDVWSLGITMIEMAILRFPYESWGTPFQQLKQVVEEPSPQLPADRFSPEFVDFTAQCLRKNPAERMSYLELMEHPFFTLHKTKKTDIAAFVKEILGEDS
smiles,measurement,setting,value
"Cc1ccc(C2=Nc3cccnc3S(=O)(=O)c3ccccc32)cc1 [TBPT, 6-(p-tolyl)benzo[f] pyrido[2,3-b][1,4] thiazepine 11,11-dioxide]",remaining binding at 5 µM,[1]; 5 μM,87%
same,remaining binding at 10 µM,[1]; 10 μM,93%
same,remaining binding at 5 µM,[2]; 5 μM,100%
same,remaining binding at 10 µM,[2]; 10 μM,93%
same,remaining binding at 5 µM,[3]; 5 μM,93%
same,remaining binding at 10 µM,[3]; 10 μM,100%
same,remaining binding at 5 µM,[4]; 5 μM,78%
same,remaining binding at 10 µM,[4]; 10 μM,88%
same,remaining binding at 5 µM,[5]; 5 μM,100%
same,remaining binding at 10 µM,[5]; 10 μM,100%
same,remaining binding at 5 µM,[6]; 5 μM,100%
same,remaining binding at 10 µM,[6]; 10 μM,96%
same,remaining binding at 5 µM,[7]; 5 μM,99%
same,remaining binding at 10 µM,[7]; 10 μM,100%
same,remaining binding at 5 µM,[8]; 5 μM,100%
same,remaining binding at 10 µM,[8]; 10 μM,90%
same,remaining binding at 5 µM,[9]; 5 μM,81%
same,remaining binding at 10 µM,[9]; 10 μM,100%
same,remaining binding at 5 µM,[10]; 5 μM,89%
same,remaining binding at 10 µM,[10]; 10 μM,100%
same,remaining binding at 5 µM,[11]; 5 μM,100%
same,remaining binding at 10 µM,[11]; 10 μM,100%
same,remaining binding at 5 µM,[12]; 5 μM,87%
same,remaining binding at 10 µM,[12]; 10 μM,95%
same,remaining binding at 5 µM,[13]; 5 μM,81%
same,remaining binding at 10 µM,[13]; 10 μM,100%
same,remaining binding at 5 µM,[14]; 5 μM,100%
same,remaining binding at 10 µM,[14]; 10 μM,87%
same,remaining binding at 5 µM,[15]; 5 μM,100%
same,remaining binding at 10 µM,[15]; 10 μM,100%
same,remaining binding at 5 µM,[16]; 5 μM,97%
same,remaining binding at 10 µM,[16]; 10 μM,100%
same,remaining binding at 5 µM,[17]; 5 μM,100%
same,remaining binding at 10 µM,[17]; 10 μM,89%
same,remaining binding at 5 µM,[18]; 5 μM,100%
same,remaining binding at 10 µM,[18]; 10 μM,82%
same,remaining binding at 5 µM,[19]; 5 μM,65%
same,remaining binding at 10 µM,[19]; 10 μM,99%
same,remaining binding at 5 µM,[20]; 5 μM,100%
same,remaining binding at 10 µM,[20]; 10 μM,100%
same,remaining binding at 5 µM,[21]; 5 μM,100%
same,remaining binding at 10 µM,[21]; 10 μM,92%
same,remaining binding at 5 µM,[22]; 5 μM,100%
same,remaining binding at 10 µM,[22]; 10 μM,100%
same,remaining binding at 5 µM,[23]; 5 μM,89%
same,remaining binding at 10 µM,[23]; 10 μM,100%
same,remaining binding at 5 µM,[24]; 5 μM,82%
same,remaining binding at 10 µM,[24]; 10 μM,100%
same,remaining binding at 5 µM,[25]; 5 μM,100%
same,remaining binding at 10 µM,[25]; 10 μM,100%
same,remaining binding at 5 µM,[26]; 5 μM,72%
same,remaining binding at 10 µM,[26]; 10 μM,97%
same,remaining binding at 5 µM,[27]; 5 μM,100%
same,remaining binding at 10 µM,[27]; 10 μM,100%
same,remaining binding at 5 µM,[28]; 5 μM,100%
same,remaining binding at 10 µM,[28]; 10 μM,92%
same,remaining binding at 5 µM,[29]; 5 μM,36%
same,remaining binding at 10 µM,[29]; 10 μM,100%
same,remaining binding at 5 µM,[30]; 5 μM,93%
same,remaining binding at 10 µM,[30]; 10 μM,97%
